Measured values: ChEMBL document CHEMBL1909046, “DrugMatrix in vitro pharmacology data”

What was measured:
[1] = target: 5-hydroxytryptamine receptor 6 (Homo sapiens, UniProt P50406); assay type: cell membranes, HeLa, Membrane; note: in other assays of this panel Not Active means under 50% inhibition at 10 µM
Carbonic anhydrase 2 = Carbonic anhydrase 2 (Homo sapiens, UniProt P00918); experiment: DRUGMATRIX: Carbonic Anhydrase II enzyme inhibition (substrate: 4-Nitrophenyl acetate (4-NPA)); assay type: tissue-based, Erythrocyte; settings: Not Active = under 50% inhibition at 10 µM
Cytochrome P450 2D6 = Cytochrome P450 2D6 (Homo sapiens, UniProt P10635); note: in other assays of this panel Not Active means under 50% inhibition at 10 µM
Sequence of Cytochrome P450 2D6 (P10635 whole entry): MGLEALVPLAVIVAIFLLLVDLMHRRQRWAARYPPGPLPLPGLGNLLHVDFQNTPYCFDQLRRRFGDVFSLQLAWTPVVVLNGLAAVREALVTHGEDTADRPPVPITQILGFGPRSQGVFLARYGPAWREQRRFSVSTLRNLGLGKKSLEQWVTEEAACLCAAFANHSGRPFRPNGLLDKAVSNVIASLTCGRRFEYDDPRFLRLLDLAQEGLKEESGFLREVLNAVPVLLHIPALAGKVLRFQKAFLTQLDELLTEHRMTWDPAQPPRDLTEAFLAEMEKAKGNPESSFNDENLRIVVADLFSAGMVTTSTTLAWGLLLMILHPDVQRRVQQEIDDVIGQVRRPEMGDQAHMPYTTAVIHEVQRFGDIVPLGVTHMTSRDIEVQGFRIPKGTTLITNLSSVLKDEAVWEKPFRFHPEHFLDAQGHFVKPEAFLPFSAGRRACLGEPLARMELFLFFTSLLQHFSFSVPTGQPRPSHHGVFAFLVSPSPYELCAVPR

[2] = target: T1, Alpha-2A adrenergic receptor (Homo sapiens, UniProt P08913); assay type: cell membranes, Sf9, Membrane; note: in other assays of this panel Not Active means under 50% inhibition at 10 µM
T1 sequence (P08913 whole entry): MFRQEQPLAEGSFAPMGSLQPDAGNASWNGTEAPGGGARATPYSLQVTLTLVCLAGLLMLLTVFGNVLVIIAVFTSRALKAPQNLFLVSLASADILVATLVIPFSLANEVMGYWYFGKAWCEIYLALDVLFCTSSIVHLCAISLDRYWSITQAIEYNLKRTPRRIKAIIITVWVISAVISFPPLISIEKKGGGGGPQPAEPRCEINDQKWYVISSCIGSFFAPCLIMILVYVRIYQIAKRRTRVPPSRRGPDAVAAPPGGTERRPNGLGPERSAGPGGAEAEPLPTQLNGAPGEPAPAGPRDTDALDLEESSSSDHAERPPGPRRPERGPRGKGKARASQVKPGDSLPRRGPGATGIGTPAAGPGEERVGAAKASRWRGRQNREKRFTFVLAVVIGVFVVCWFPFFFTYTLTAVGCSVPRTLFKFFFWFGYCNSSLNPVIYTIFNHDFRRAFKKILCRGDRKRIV

[3] = DRUGMATRIX: beta-Lactamase enzyme inhibition (substrate: Nitrocefin); set-up: species or system Bacillus cereus; settings: Not Active = under 50% inhibition at 10 µM
Androgen receptor = target: T2, Androgen receptor (Rattus norvegicus, UniProt P15207); note: in other assays of this panel Not Active means under 50% inhibition at 10 µM
T2 sequence (P15207 whole entry): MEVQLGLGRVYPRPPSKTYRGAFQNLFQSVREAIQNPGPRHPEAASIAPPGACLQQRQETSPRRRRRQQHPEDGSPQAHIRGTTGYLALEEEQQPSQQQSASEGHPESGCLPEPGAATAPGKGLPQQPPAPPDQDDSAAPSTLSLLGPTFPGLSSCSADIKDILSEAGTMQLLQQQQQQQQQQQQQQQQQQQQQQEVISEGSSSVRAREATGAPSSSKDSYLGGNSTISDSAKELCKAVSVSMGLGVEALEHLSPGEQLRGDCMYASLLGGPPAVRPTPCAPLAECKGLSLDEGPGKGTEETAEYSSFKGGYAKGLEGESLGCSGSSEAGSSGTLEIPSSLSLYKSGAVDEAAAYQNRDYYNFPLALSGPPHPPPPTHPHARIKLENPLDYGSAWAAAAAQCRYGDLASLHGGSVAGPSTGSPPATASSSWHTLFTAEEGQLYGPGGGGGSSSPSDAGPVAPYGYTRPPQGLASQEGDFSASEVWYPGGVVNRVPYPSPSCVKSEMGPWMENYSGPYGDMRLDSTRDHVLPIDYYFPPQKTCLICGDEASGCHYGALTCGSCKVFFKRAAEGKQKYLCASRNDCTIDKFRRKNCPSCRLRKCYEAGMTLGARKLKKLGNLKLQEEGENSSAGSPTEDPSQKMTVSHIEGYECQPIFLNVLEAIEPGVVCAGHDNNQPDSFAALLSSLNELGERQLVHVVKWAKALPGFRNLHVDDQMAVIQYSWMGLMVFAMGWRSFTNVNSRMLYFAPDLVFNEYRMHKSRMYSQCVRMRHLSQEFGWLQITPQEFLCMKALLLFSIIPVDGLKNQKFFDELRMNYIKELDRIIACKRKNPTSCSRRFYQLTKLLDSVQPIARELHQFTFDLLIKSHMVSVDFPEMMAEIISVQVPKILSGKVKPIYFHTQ

Sequence of 5-hydroxytryptamine receptor 6 (P50406 whole entry): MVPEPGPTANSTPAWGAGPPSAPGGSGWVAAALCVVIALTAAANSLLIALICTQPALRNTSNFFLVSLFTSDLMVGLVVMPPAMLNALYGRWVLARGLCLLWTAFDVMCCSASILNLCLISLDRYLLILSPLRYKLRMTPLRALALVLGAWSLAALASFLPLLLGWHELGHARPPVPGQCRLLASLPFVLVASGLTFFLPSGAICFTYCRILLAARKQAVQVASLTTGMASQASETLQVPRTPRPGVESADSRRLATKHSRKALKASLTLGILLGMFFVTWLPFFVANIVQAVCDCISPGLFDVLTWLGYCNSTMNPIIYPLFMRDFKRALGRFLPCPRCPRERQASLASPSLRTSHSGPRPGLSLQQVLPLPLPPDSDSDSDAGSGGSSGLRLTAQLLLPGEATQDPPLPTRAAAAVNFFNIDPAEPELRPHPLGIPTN

Molecule	IC50 ([1]; hela)	IC50 (Carbonic anhydrase 2; erythrocyte)	IC50 ([2]; sf9)	IC50 [3]	Ki [3]	IC50 (Androgen receptor)	other results
Cc1nc2n(c(=O)c1CCN1CCC(c3noc4cc(F)ccc34)CC1)CCCC2 [RISPERIDONE]	Not Active	Not Active					IC50 (Cytochrome P450 2D6): 5270 nM
C=CCC1(C(C)CCC)C(=O)NC(=O)NC1=O (stereo not given) [SECOBARBITAL]	Not Active	Not Active	Not Active	Not Active	Not Active		
C[C@@H]1CN(c2c(F)c(N)c3c(=O)c(C(=O)O)cn(C4CC4)c3c2F)C[C@H](C)N1 [SPARFLOXACIN]	Not Active	Not Active	Not Active	Not Active	Not Active		
Cc1noc(NS(=O)(=O)c2ccc(N)cc2)c1C [SULFISOXAZOLE]	Not Active	Not Active	Not Active	Not Active	Not Active		
Nc1c2c(nc3ccccc13)CCCC2 [TACRINE]	Not Active	Not Active	Not Active	Not Active	Not Active		IC50 (Cytochrome P450 2D6): 300 nM
CC/C(=C(\c1ccccc1)c1ccc(OCCN(C)C)cc1)c1ccccc1 [TAMOXIFEN]		Not Active					IC50 ([2]; read-out: IC50): 1930 nM; Ki ([2]; read-out: Ki): 726 nM; IC50 ([1]; read-out: IC50): 2680 nM; Ki ([1]; read-out: Ki): 1240 nM
CC(C)N1CCN(c2ccc(OCC3COC(Cn4cncn4)(c4ccc(Cl)cc4Cl)O3)cc2)CC1 (stereo not given) [TERCONAZOLE]	Not Active	Not Active		Not Active	Not Active		IC50 ([2]; read-out: IC50): 983 nM; Ki ([2]; read-out: Ki): 369 nM
Nc1nc2nc[nH]c2c(=S)[nH]1 [THIOGUANINE]	Not Active	Not Active	Not Active	Not Active	Not Active	Not Active	
NC[C@H]1CC[C@H](C(=O)O)CC1 [TRANEXAMIC ACID]	Not Active	Not Active	Not Active	Not Active	Not Active		
CC1(C)O[C@@H]2C[C@H]3[C@@H]4CCC5=CC(=O)C=C[C@]5(C)[C@@]4(F)[C@@H](O)C[C@]3(C)[C@]2(C(=O)CO)O1 [TRIAMCINOLONE ACETONIDE]	Not Active	Not Active	Not Active	Not Active	Not Active		
NS(=O)(=O)c1cc2c(cc1Cl)NC(C(Cl)Cl)NS2(=O)=O (stereo not given) [TRICHLORMETHIAZIDE]	Not Active	Not Active	Not Active	Not Active	Not Active		
Cc1c(C)c2c(c(C)c1O)CCC(C)(COc1ccc(CC3SC(=O)NC3=O)cc1)O2 (stereo not given) [TROGLITAZONE]	Not Active		Not Active	Not Active	Not Active	Not Active	IC50 (Carbonic anhydrase 2; read-out: IC50): 970 nM
N[C@@H]1[C@H]2CN(c3nc4c(cc3F)c(=O)c(C(=O)O)cn4-c3ccc(F)cc3F)C[C@@H]12 [TROVAFLOXACIN]	Not Active	Not Active	Not Active	Not Active	Not Active	Not Active	
N#CC(C#N)=Cc1ccc(O)c(O)c1 [TYRPHOSTIN 23]	Not Active	Not Active	Not Active	Not Active	Not Active	Not Active	
CC[C@]1(O)C[C@H]2CN(CCc3c([nH]c4ccccc34)[C@@](C(=O)OC)(c3cc4c(cc3OC)N(C=O)[C@H]3[C@@](O)(C(=O)OC)[C@H](OC(C)=O)[C@]5(CC)C=CCN6CC[C@]43[C@@H]65)C2)C1 [VINCRISTINE]	Not Active	Not Active	Not Active	Not Active	Not Active	Not Active	
CCCOc1ccccc1-c1nc2nn[nH]c2c(=O)[nH]1 [ZAPRINAST]	Not Active	Not Active	Not Active	Not Active	Not Active		
SODIUM NITROPRUSSIDE	Not Active	Not Active	Not Active	Not Active	Not Active	Not Active	Ki ([2]; sf9): Not Active; Ki ([1]; hela): Not Active; Ki (Carbonic anhydrase 2; erythrocyte): Not Active; Ki (Androgen receptor): Not Active
